Laboratory results: patent publication US20100040666A1, “Method for Control of Drug Elution Rate and Composition for Coating of Drug-Eluting Stent” (priority 2005, published 2010)

Assay: Elution test of compound represented by structural formula (2) from poly (MPC-co-BMA)
Assay type: physicochemical
Conditions: thin plate of stainless steel coated sequentially with compositions of Examples 1 to 3, immersed in distilled water
Experimental: Test 2: Elution Test of Compound Represented by Structural Formula (2)
The elution test of the compound represented by the structural formula (2) from poly (MPC-co-BMA) was conducted. The test sample was prepared by coating sequentially the compositions from Examples 1 to 3 to a thin plate of stainless steel. The prepared sample was immersed in distilled water, and then the amount of the eluted compound represented by the structural formula (2) was measured with time.
It can be verified that the compound represented by the structural formula (2) is eluted for about 100 hours. In addition, even after 100 hours, the compound represented by the structural formula (2) is eluted gradually for 400 hours, and thus it can be verified that controlled release is intended.

time for which the compound is eluted (cumulative eluted amount, FIG. 3): about 100 hours
time for which the compound is eluted gradually, even after 100 hours (controlled release): 400 h
SMILES: CCOc1cccc(C(CC)n2nc(C(=O)O)c3c2-c2ccc(OCc4cncnc4)cc2CC3)c1 (centres unmarked) [structural formula (2)]
